For this test, the target named is T1, ΔF508-CFTR (Homo sapiens, UniProt P13569, DEL508-508).
T1 construct: expressed in transfected cells
Kind of test: Membrane potential optical assay for ΔF508-CFTR correction (single-addition HTS format). It is filed as cell-based. Particulars: NIH3T3 mouse fibroblasts stably expressing ΔF508-CFTR; 16-24 hrs with compound; activation with 10 μM forskolin and 20 μM genistein; read-out: BinnedMaxEfficacy (PercentActivity). The source says:
Membrane potential optical methods for assaying ΔF508-CFTR modulation properties of compounds.
The assay utilizes fluorescent voltage sensing dyes to measure changes in membrane potential using a fluorescent plate reader (e.g., FLIPR III, Molecular Devices, Inc.) as a readout for increase in functional ΔF508-CFTR in NIH 3T3 cells. The driving force for the response is the creation of a chloride ion gradient in conjunction with channel activation by a single liquid addition step after the cells have previously been treated with compounds and subsequently loaded with a voltage sensing dye.
To identify small molecules that correct the trafficking defect associated with ΔF508-CFTR; a single-addition HTS assay format was developed. Assay Plates containing cells are incubated for ˜2-4 hours in tissue culture incubator at 37° C., 5% CO2, 90% humidity. Cells are then ready for compound exposure after adhering to the bottom of the assay plates.
The cells were incubated in serum-free medium for 16-24 hrs in tissue culture incubator at 37° C., 5% CO2, 90% humidity in the presence or absence (negative control) of test compound. The cells were subsequently rinsed 3× with Krebs Ringers solution and loaded with a voltage sensing redistribution dye. To activate ΔF508-CFTR, 10 μM forskolin and the CFTR potentiator, genistein (20 μM), were added along with Cl^−-free medium to each well. The addition of Cl^−-free medium promoted Cl^− efflux in response to ΔF508-CFTR activation and the resulting membrane depolarization was optically monitored using voltage sensor dyes.
Bath Solution #1: (in mM) NaCl 160, KCl 4.5, CaCl2 2, MgCl2 1, HEPES 10, pH 7.4 with NaOH.
Chloride-free bath solution: Chloride salts in Bath Solution #1 are substituted with gluconate salts.
NIH3T3 mouse fibroblasts stably expressing ΔF508-CFTR are used for optical measurements of membrane potential. The cells are maintained at 37° C. in 5% CO2 and 90% humidity in Dulbecco's modified Eagle's medium supplemented with 2 mM glutamine, 10% fetal bovine serum, 1×NEAA, β-ME, 1× pen/strep, and 25 mM HEPES in 175 cm^2 culture flasks. For all optical assays, the cells were seeded at ˜20,000/well in 384-well matrigel-coated plates and cultured for 2 hrs at 37° C. before culturing at 27° C. for 24 hrs. for the potentiator assay. For the correction assays, the cells are cultured at 27° C. or 37° C. with and without compounds for 16-24 hours.

Bounds are passed on as bounds.

T1 sequence (P13569 with tags, fused parts or gaps DEL508-508): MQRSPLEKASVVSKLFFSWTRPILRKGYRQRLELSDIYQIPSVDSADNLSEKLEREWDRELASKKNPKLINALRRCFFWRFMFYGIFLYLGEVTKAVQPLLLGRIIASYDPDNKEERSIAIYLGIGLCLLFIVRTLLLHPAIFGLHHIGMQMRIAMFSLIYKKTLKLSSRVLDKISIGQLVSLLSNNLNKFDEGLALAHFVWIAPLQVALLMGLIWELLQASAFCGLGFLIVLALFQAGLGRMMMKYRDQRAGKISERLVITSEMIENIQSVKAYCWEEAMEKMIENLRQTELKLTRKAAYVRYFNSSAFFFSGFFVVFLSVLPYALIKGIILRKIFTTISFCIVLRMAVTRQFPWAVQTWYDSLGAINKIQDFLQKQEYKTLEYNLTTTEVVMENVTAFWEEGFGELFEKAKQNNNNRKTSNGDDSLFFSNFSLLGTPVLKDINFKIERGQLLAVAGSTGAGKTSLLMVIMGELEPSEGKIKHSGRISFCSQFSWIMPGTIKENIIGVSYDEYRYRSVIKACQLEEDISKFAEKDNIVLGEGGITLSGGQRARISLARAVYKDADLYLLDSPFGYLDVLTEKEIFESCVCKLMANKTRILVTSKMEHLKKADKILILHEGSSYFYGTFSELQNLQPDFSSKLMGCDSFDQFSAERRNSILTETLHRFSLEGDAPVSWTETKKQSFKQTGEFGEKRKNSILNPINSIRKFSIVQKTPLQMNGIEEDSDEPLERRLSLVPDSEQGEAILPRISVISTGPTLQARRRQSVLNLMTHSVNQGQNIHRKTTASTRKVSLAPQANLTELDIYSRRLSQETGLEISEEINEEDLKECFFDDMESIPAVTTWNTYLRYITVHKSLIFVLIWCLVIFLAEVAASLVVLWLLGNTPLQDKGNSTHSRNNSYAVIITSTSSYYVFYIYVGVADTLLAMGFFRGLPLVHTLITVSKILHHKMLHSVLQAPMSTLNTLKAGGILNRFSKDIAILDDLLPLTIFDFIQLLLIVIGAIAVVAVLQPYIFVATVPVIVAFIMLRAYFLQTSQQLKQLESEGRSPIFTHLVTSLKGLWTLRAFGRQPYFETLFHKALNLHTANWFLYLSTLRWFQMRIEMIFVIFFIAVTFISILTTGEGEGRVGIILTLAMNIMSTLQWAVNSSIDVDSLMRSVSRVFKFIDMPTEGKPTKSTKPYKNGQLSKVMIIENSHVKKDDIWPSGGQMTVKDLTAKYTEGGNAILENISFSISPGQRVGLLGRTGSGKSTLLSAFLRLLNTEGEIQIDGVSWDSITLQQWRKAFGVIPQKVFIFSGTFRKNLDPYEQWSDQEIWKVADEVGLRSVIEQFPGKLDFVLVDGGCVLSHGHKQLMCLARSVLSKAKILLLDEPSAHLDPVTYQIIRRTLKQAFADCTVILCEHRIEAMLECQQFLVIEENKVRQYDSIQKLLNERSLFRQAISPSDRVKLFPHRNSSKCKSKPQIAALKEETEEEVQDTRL

In the case of `CNC(=O)c1ccc(-c2cc(NC(=O)C3(c4ccc5c(c4)OCO5)CC3)cnc2C)cc1` [Compound 16, 4-(5-(1-(benzo[d][1,3]dioxol-5-yl)cyclopropanecarboxamido)-2-methylpyridin-3-yl)-N-methylbenzamide], the Emax lay within 25 to 100%.

Regarding `Cc1ccnc(NC(=O)C2(c3ccc4c(c3)OCO4)CC2)n1` [Compound 25, 1-(benzo[d][1,3]dioxol-5-yl)-N-(4-methylpyrimidin-2-yl)cyclopropanecarboxamide], the Emax is 25 to 100%. As for `COc1ccccc1Nc1ccc(NC(=O)C2(c3ccc4c(c3)OCO4)CC2)cn1` [Compound 43, 1-(benzo[d][1,3]dioxol-5-yl)-N-(6-(2-methoxyphenylamino)pyridin-3-yl)cyclopropanecarboxamide], the figure is > 100%. With `O=C(N(c1ccnc(C(F)(F)F)c1)c1ccccn1)C1(c2ccc3c(c2)OCO3)CC1` [Compound 41, 1-(benzo[d][1,3]dioxol-5-yl)-N-(pyridin-2-yl)-N-(2-(trifluoromethyl)pyridin-4-yl)cyclopropanecarboxamide], the Emax was 25 to 100%.

With `COc1ccccc1Cc1cnc(NC(=O)C2(c3ccc4c(c3)OCO4)CC2)cn1` [Compound 34], the Emax lay within 25 to 100%. Then `O=C(Nc1ccc(CC2CCCCC2)nn1)C1(c2ccc3c(c2)OCO3)CC1` [Compound 5, 1-(benzo[d][1,3]dioxol-5-yl)-N-(6-(cyclohexylmethyl)pyridazin-3-yl)cyclopropanecarboxamide], with 25 to 100%; and `O=C(Nc1cnc(Cc2ccccc2)cn1)C1(c2ccc3c(c2)OCO3)CC1` [Compound 12], with > 100%.

As to `CNS(=O)(=O)c1ccc(-c2cc(NC(=O)C3(c4ccc5c(c4)OCO5)CC3)cnc2C)cc1` [Compound 30, 1-(benzo[d][1,3]dioxol-5-yl)-N-(6-methyl-5-(4-(N-methylsulfamoyl)phenyl)pyridin-3-yl)cyclopropanecarboxamide], the Emax is > 100%. Turning to `O=C(Nc1ccnc(Cc2ccccc2)c1)C1(c2ccc3c(c2)OCO3)CC1` [Compound 36, 1-(benzo[d][1,3]dioxol-5-yl)-N-(2-benzylpyridin-4-yl)cyclopropanecarboxamide], the Emax was > 100%.
